Test results from ChEMBL document CHEMBL1255490, “In vitro activities of DC-159a, a novel fluoroquinolone, against Mycobacterium species” (Antimicrob Agents Chemother, 2010).
Converted amounts (≈) assume the structure as drawn.

Legend:
[1] = tested on: Mycobacterium tuberculosis; test: Antimycobacterial activity against drug-susceptible Mycobacterium tuberculosis after 21 days by agar dilution method; format: functional; conditions: 504 h
[2] = tested on: Mycobacterium kansasii; test: Antimycobacterial activity against Mycobacterium kansasii after 7 days by agar dilution method; format: functional; conditions: 168 h
[3] = tested on: Mycolicibacterium fortuitum; test: Antimycobacterial activity against Mycobacterium fortuitum after 3 days by agar dilution method; format: functional; conditions: 72 h
[4] = tested on: Mycobacterium intracellulare; test: Antimycobacterial activity against Mycobacterium intracellular serovar 16 after 21 days by agar dilution method; format: functional; conditions: serovar 16, 504 h
[5] = tested on: Mycobacteroides chelonae; test: Antimycobacterial activity against Mycobacterium chelonae after 3 days by agar dilution method; format: functional; conditions: 72 h
[6] = tested on: Mycobacteroides abscessus; test: Antimycobacterial activity against Mycobacterium abscessus after 3 days by agar dilution method; format: functional; conditions: 72 h
[7] = tested on: Mycobacterium avium; test: Antimycobacterial activity against Mycobacterium avium serovar 4 after 14 days by agar dilution method; format: functional; conditions: serovar 4, 336 h
[8] = tested on: Mycobacterium avium; test: Antimycobacterial activity against Mycobacterium avium serovar 8 after 14 days by agar dilution method; format: functional; conditions: serovar 8, 336 h
[9] = Cmax in monkey at 5 mg/kg, po; format: ADME, organism-based, Macaca mulatta; design: dose 5 mg/kg, route oral; conditions: rhesus monkey, in vivo
[10] = AUC (0 to 24 hrs) in monkey at 5 mg/kg, po; format: ADME, organism-based, Macaca mulatta; design: time < 24 hr, dose 5 mg/kg, route oral; conditions: rhesus monkey, plasma

## COc1c(N2C[C@@H]3CCCN[C@@H]3C2)c(F)cc2c(=O)c(C(=O)O)cn(C3CC3)c12 [MOXIFLOXACIN]
[1]
  MIC50: 0.25 µg/mL (≈ 0.623 µM)
  MIC90: 0.25 µg/mL (≈ 0.623 µM)
[2]
  MIC50: 0.125 µg/mL (≈ 0.311 µM)
  MIC90: 0.25 µg/mL (≈ 0.623 µM)
[3]
  MIC50: 0.125 µg/mL (≈ 0.311 µM)
  MIC90: 0.25 µg/mL (≈ 0.623 µM)
[4]
  MIC50: 2 µg/mL (≈ 4.98 µM)
  MIC90: 8 µg/mL (≈ 19.9 µM)
[5]
  MIC50: 32 µg/mL (≈ 79.7 µM)
  MIC90: 32 µg/mL (≈ 79.7 µM)
[6]
  MIC50: 64 µg/mL (≈ 159 µM)
  MIC90: 128 µg/mL (≈ 319 µM)

## CO[C@H]1/C=C/O[C@@]2(C)Oc3c(C)c(O)c4c(O)c(c(/C=N/N5CCN(C)CC5)c(O)c4c3C2=O)NC(=O)/C(C)=C\C=C\[C@H](C)[C@H](O)[C@@H](C)[C@@H](O)[C@@H](C)[C@H](OC(C)=O)[C@@H]1C [RIFAMPIN]
[1]
  MIC50: 0.06 µg/mL (≈ 0.0729 µM)
  MIC90: 0.125 µg/mL (≈ 0.152 µM)
[2]
  MIC50: 0.25 µg/mL (≈ 0.304 µM)
  MIC90: 0.25 µg/mL (≈ 0.304 µM)
[3]
  MIC50: 32 µg/mL (≈ 38.9 µM)
  MIC90: 64 µg/mL (≈ 77.8 µM)
[7]
  MIC50: 32 µg/mL (≈ 38.9 µM)
  MIC90: 128 µg/mL (≈ 156 µM)
[8]
  MIC50: 32 µg/mL (≈ 38.9 µM)
  MIC90: 128 µg/mL (≈ 156 µM)
[4]
  MIC50: 2 µg/mL (≈ 2.43 µM)
  MIC90: 32 µg/mL (≈ 38.9 µM)
[5]
  MIC: > 128 µg/mL
  MIC50: > 128 µg/mL
  MIC90: > 128 µg/mL
[6]
  MIC: > 128 µg/mL
  MIC50: > 128 µg/mL
  MIC90: > 128 µg/mL

## COc1c(N2CC3(CC3)[C@](C)(N)C2)c(F)cc2c(=O)c(C(=O)O)cn([C@@H]3C[C@@H]3F)c12
[1]
  MIC50: 0.06 µg/mL (≈ 0.143 µM)
  MIC90: 0.06 µg/mL (≈ 0.143 µM)
[2]
  MIC50: 0.06 µg/mL (≈ 0.143 µM)
  MIC90: 0.125 µg/mL (≈ 0.298 µM)
[3]
  MIC50: 0.125 µg/mL (≈ 0.298 µM)
  MIC90: 0.25 µg/mL (≈ 0.596 µM)
[7]
  MIC50: 1 µg/mL (≈ 2.38 µM)
  MIC90: 2 µg/mL (≈ 4.77 µM)
[8]
  MIC50: 1 µg/mL (≈ 2.38 µM)
  MIC90: 2 µg/mL (≈ 4.77 µM)
[4]
  MIC50: 1 µg/mL (≈ 2.38 µM)
  MIC90: 4 µg/mL (≈ 9.54 µM)
[5]
  MIC: 4 µg/mL (≈ 9.54 µM)
  MIC50: 4 µg/mL (≈ 9.54 µM)
  MIC90: 8 µg/mL (≈ 19.1 µM)
[6]
  MIC50: 8 µg/mL (≈ 19.1 µM)
  MIC90: 16 µg/mL (≈ 38.1 µM)
[9]
  Cmax: 2200 ng/mL
[10]
  AUC(0-t) at 24 h: 16900 ng·h/mL

## COc1c(N2CCNC(C)C2)c(F)cc2c(=O)c(C(=O)O)cn(C3CC3)c12 (configuration not stated) [GATIFLOXACIN]
[1]
  MIC50: 0.125 µg/mL (≈ 0.333 µM)
  MIC90: 0.25 µg/mL (≈ 0.666 µM)
[2]
  MIC50: 0.125 µg/mL (≈ 0.333 µM)
  MIC90: 0.5 µg/mL (≈ 1.33 µM)
[3]
  MIC50: 0.125 µg/mL (≈ 0.333 µM)
  MIC90: 0.25 µg/mL (≈ 0.666 µM)
[7]
  MIC50: 2 µg/mL (≈ 5.33 µM)
  MIC90: 8 µg/mL (≈ 21.3 µM)
[8]
  MIC50: 2 µg/mL (≈ 5.33 µM)
  MIC90: 8 µg/mL (≈ 21.3 µM)
[4]
  MIC50: 4 µg/mL (≈ 10.7 µM)
  MIC90: 16 µg/mL (≈ 42.6 µM)
[5]
  MIC50: 16 µg/mL (≈ 42.6 µM)
  MIC90: 32 µg/mL (≈ 85.2 µM)
[6]
  MIC50: 32 µg/mL (≈ 85.2 µM)
  MIC90: 64 µg/mL (≈ 170 µM)

## C[C@H]1COc2c(N3CCN(C)CC3)c(F)cc3c(=O)c(C(=O)O)cn1c23.C[C@H]1COc2c(N3CCN(C)CC3)c(F)cc3c(=O)c(C(=O)O)cn1c23.O [LEVOFLOXACIN]
[1]
  MIC50: 0.5 µg/mL
  MIC90: 0.5 µg/mL
[2]
  MIC: 0.25 µg/mL
  MIC50: 0.25 µg/mL
  MIC90: 1 µg/mL
[3]
  MIC50: 0.25 µg/mL
  MIC90: 0.5 µg/mL
[7]
  MIC50: 8 µg/mL
  MIC90: 32 µg/mL
[8]
  MIC50: 8 µg/mL
  MIC90: 32 µg/mL
[4]
  MIC50: 8 µg/mL
  MIC90: 32 µg/mL
[5]
  MIC50: 32 µg/mL
  MIC90: 64 µg/mL
[6]
  MIC50: 64 µg/mL
  MIC90: 128 µg/mL
